Where two headings read alike, the source gives them in different places.
Experiments:
Type in all cases: cell-based
IKZF2 [1] = experiment: GFP-IKZF2 cellular degradation assay (eGFP fusion/mCherry reporter, Flip-In 293 cells); details: Flip-In 293 cells stably expressing IKZF2 GFP fusion with mCherry reporter, 5 h
Description: IKZF1A and IKZF2A were subcloned into mammalian pcDNA5/FRT Vector (Ampicillin and Hygromycin B resistant) modified to contain MCS-eGFP-P2A-mCherry. Stable cell lines expressing eGFP-protein fusion and mCherry reporter were generated using Flip-In 293 system. Plasmid (0.3 μg) and pOG44 (4.7 μg) DNA were preincubated in 100 μL of Opti-MEM™ I (Gibco™, Life Technologies™) media containing 0.05 mg/mL Lipofectamine™ 2000 (Invitrogen™) for 20 min and added to Flip-In 293 cells containing 1.9 mL of DMEM media (Gibco™, Life Technologies™) per well in a 6-well plate format (Falcon, 353046). Cells were propagated for 48 h and were then transferred into a 10 cm^2 plate (Corning, 430165) in DMEM media containing 50 μg/mL of Hygromycin B (REF 10687010, Invitrogen™) as a selection marker. Following 2-3 passage cycle, FACS (FACSAria™ II, BD) was used to enrich for cells expressing eGFP and mCherry.
(§1) Cells stably expressing the IKZF1A, or IKZF2A GFP fusions with mCherry reporter were seeded at 30-50% confluency in 384-well plates with 50 μL FluoroBrite™ DMEM media (Thermo Fisher Scientific™ A18967) containing 10% FBS per well a day before compound treatment. Compound titrations were dispensed using a D300e Digital Dispenser (HP), normalized to 0.5% DMSO, and incubated with cells for 5 hours.
(§2) The assay plate was imaged immediately using an Acumen High Content Imager (TTP Labtech) with 488 nm and 561 nm lasers in […] per well format. The resulting images were analyzed using CellProfiler (Carpenter et al., Genome Biol. 2006, 7:R100). A series of image analysis steps (‘image analysis pipeline’) was constructed. First, the red and green channels were aligned and cropped to target the middle of each well (to avoid analysis of heavily clumped cells at the edges), and a background illumination function was calculated for both red and green channels of each well individually and subtracted to correct for illumination variations across the 384-well plate from various sources of error. An additional step was then applied to the green channel to suppress the analysis of large auto fluorescent artifacts and enhance the analysis of cell specific fluorescence by way of selecting for objects under a given size, 30 A.U., and with a given shape, speckles. mCherry-positive cells were then identified in the red channel filtering for objects between 8-60 pixels in diameter and using intensity to distinguish between clumped objects. The green channel was then segmented into GFP positive and negative areas and objects were labeled as GFP positive if at least 40% of it overlapped with a GFP positive area. The fraction of GFP-positive cells/mCherry-positive cells in each well was then calculated, and the green and red images were rescaled for visualization. The concentrations that lead to half degradation at 5 h (DC50, 5h) were calculated using the nonlinear fit variable slope model (GraphPad Software).

IKZF1 [2] = target: T1, IKZF1 (Homo sapiens, UniProt Q13422); experiment: GFP-IKZF1 cellular degradation assay (eGFP fusion/mCherry reporter, Flip-In 293 cells)
T1 construct: expressed in transfected cells
Description: IKZF1A and IKZF2A were subcloned into mammalian pcDNA5/FRT Vector (Ampicillin and Hygromycin B resistant) modified to contain MCS-eGFP-P2A-mCherry. […] Following 2-3 passage cycle, FACS (FACSAria™ II, BD) was used to enrich for cells expressing eGFP and mCherry.
as §1
as §2, with “The resulting images were analyzed using CellProfiler (Carpenter et al., Genome Biol. 2006, 7:R100).” left out

IKZF1 [3] = target: T2, IKZF1 (Homo sapiens, UniProt Q13422+Q96SW2); experiment: HiBit-IKZF1 degradation assay in Molt4 cells
T2 construct: knocked into the endogenous IKZF2 or IKZF1 locus of Molt4 cells; endogenous in cells; host or cells: Molt4 (CRISPR/Cas9 HiBit knock-in)
Description: (§3) The HiBit tag was knocked into the endogenous IKZF2 or IKZF1 locus of Molt4 cells to generate a HiBit-IKZF2 or HiBit-IKZF1 fusion proteins via CRISPR/Cas9 gene editing. Cells were then treated with a 12 point concentration curve of the indicated compounds, and luminescence (corresponding to Helios abundance) was detected after 6 hours using the Nano-Glo® HiBit Lytic Detection system (Promega™). The concentration necessary to achieve 50% degradation (DC50) was calculated using Prism (GraphPad).

Helios = target: T3, Helios (Homo sapiens, UniProt Q96SW2+Q9UKS7); experiment: Degradation in Jurkat cells (immunoblot); details: 4 hours, indicated concentrations
T3 construct: Immunoblots for Ikaros, Helios, and Actin from wildtype Jurkat cells; endogenous in cells; host or cells: wild-type Jurkat cells
Description: Cells were lysed in M-PER® buffer (Thermo Scientific) containing protease/phosphatase inhibitor cocktail (Roche). Protein concentration was measured using a BCA assay (Pierce™). Equivalent amounts of each sample were loaded on 4-12% Bis-Tris gels (Invitrogen™), transferred to nitrocellulose membranes, and immunoblotted with the indicated antibodies. IRDye®800-labeled goat anti-rabbit IgG and IRDye®680-labeled goat anti-mouse IgG (LI-COR®) secondary antibodies were purchased from LI-COR®, and membranes were detected on an Odyssey® detection system (LI-COR® Biosciences).
Immunoblots for Ikaros, Helios, and Actin from wildtype Jurkat cells treated with compound 36 or 65 for 4 hours at the indicated concentrations were generated (FIG. 1).

IKZF2 [4] = target: T4, IKZF2 (Homo sapiens, UniProt Q96SW2+Q9UKS7); experiment: HiBit-IKZF2 degradation assay in Molt4 cells
T4 construct: knocked into the endogenous IKZF2 or IKZF1 locus of Molt4 cells; endogenous in cells; host or cells: Molt4 (CRISPR/Cas9 HiBit knock-in)
Description: as §3

T2 sequence (Q13422 whole entry): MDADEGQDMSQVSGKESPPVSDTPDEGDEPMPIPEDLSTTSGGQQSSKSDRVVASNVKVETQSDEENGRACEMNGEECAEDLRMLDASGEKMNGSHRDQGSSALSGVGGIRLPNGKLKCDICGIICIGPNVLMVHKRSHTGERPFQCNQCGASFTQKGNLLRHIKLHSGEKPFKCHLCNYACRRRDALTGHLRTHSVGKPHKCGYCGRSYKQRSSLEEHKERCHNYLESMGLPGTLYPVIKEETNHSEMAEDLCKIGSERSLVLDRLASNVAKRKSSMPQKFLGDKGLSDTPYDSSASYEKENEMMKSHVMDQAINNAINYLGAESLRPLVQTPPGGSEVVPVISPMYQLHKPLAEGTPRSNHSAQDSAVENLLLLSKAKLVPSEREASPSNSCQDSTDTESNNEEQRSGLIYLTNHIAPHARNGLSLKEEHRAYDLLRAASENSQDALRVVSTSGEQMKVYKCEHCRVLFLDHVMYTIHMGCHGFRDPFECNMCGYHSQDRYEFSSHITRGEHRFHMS
T2 sequence (Q96SW2 whole entry): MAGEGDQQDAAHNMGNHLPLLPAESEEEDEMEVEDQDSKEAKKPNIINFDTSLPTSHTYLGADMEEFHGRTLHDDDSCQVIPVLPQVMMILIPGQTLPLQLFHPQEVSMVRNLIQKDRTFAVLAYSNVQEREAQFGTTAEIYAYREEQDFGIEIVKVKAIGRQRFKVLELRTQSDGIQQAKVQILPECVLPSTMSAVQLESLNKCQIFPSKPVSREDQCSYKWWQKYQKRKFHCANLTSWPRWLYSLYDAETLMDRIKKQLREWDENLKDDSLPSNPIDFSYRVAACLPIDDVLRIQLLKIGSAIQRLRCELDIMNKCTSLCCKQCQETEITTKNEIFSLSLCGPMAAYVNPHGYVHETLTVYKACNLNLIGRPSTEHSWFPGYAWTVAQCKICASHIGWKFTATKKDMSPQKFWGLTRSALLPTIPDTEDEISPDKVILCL
T2 sequence (Q16531 whole entry partner): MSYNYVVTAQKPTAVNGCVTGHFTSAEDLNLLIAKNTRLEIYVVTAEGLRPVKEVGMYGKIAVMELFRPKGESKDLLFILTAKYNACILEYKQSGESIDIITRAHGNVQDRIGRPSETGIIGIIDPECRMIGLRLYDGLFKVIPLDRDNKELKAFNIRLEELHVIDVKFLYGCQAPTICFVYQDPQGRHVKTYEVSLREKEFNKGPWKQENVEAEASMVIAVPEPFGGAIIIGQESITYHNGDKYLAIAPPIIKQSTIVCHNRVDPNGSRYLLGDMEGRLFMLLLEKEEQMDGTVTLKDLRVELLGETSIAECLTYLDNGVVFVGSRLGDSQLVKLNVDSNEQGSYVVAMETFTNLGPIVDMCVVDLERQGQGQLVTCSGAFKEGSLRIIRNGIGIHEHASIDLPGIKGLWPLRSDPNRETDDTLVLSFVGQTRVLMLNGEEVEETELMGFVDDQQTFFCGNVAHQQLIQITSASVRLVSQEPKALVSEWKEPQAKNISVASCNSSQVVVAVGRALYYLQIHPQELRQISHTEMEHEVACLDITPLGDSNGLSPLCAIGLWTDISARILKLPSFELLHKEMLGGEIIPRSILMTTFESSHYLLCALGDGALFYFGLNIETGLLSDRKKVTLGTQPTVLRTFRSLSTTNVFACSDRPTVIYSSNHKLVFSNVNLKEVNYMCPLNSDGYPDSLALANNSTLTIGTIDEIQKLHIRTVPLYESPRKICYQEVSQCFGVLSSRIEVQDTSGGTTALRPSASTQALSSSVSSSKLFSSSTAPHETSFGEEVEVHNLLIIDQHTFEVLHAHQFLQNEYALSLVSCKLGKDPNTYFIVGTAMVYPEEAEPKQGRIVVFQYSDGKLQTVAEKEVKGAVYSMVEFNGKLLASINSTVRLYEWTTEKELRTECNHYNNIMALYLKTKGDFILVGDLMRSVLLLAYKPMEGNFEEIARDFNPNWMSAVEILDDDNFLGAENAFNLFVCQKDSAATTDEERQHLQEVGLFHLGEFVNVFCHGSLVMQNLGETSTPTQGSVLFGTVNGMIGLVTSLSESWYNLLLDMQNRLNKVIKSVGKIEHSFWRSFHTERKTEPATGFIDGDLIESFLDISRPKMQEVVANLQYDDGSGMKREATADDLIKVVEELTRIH
T4 sequence (Q9UKS7 whole entry): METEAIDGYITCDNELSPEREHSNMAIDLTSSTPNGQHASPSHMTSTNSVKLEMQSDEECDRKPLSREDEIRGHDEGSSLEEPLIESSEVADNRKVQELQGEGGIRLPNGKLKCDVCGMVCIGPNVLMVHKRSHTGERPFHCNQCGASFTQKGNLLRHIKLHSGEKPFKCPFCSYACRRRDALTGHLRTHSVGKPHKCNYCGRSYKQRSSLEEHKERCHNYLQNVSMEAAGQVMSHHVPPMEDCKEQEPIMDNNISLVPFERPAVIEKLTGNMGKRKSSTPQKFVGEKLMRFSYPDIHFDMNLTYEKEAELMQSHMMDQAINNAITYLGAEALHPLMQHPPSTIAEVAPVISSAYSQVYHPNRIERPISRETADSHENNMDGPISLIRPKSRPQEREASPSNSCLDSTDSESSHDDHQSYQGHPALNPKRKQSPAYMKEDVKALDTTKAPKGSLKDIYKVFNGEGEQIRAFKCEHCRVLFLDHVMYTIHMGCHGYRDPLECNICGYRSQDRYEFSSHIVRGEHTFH
T4 sequence (Q96SW2 whole entry): as the sequence (Q96SW2 whole entry) above
T4 sequence (Q16531 whole entry partner): as the sequence (Q16531 whole entry partner) above
T3 sequence (Q9UKS7 whole entry): as the sequence (Q9UKS7 whole entry) above
T3 sequence (Q96SW2 whole entry): as the sequence (Q96SW2 whole entry) above
T3 sequence (Q16531 whole entry partner): as the sequence (Q16531 whole entry partner) above
T1 sequence (Q13422 83-213 isoform Q13422-7 limits assumed): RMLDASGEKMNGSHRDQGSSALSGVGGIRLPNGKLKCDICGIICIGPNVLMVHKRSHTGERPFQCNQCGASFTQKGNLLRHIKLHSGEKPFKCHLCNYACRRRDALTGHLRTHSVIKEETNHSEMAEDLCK
T1 sequence (Q96SW2 whole entry partner, the tested form may be a part): as the sequence (Q96SW2 whole entry) above
T1 sequence (Q16531 whole entry partner, the tested form may be a part): as the sequence (Q16531 whole entry partner) above

Structure (SMILES)	DC50 (IKZF2 [1])	DC50 (IKZF1 [2]; Flip-In 293 cells stably expressing IKZF1 GFP fusion with mCherry reporter, 5 h; read-out: GFP IKZF1 DC50)	DC50 (IKZF1 [3]; Molt4 cells with endogenous HiBit-IKZF1 knock-in, 6 hours, Nano-Glo HiBit luminescence; read-out: IKZF1 DC50)	Helios degradation (immunoblot, FIG. 1) (Helios)	DC50 (IKZF2 [4]; Molt4 cells with endogenous HiBit-IKZF2 knock-in, 6 hours, Nano-Glo HiBit luminescence; read-out: IKZF2 DC50)	DC50 (IKZF1 [2]; read-out: GFP IKZF1 DC50; Flip-In 293 cells stably expressing IKZF1 GFP fusion with mCherry reporter, 5 h)	DC50 (IKZF1 [3]; read-out: IKZF1 DC50; Molt4 cells with endogenous HiBit-IKZF1 knock-in, 6 hours, Nano-Glo HiBit luminescence)	DC50 (IKZF2 [4]; read-out: IKZF2 DC50; Molt4 cells with endogenous HiBit-IKZF2 knock-in, 6 hours, Nano-Glo HiBit luminescence)
CN(C)C(CC(=O)Nc1cccc(C(F)(F)F)c1)c1cccc(NC2=CC(=O)N(C3CCC(=O)NC3=O)C2=O)c1 (stereo not shown) [Compound 36, 3-(dimethylamino)-3-(3-((1-(2,6-dioxopiperidin-3-yl)-2,5-dioxo-2,5-dihydro-1H-pyrrol-3-yl)amino)phenyl)-N-(3-(trifluoromethyl)phenyl)propanamide]	2.3 nM	5.4 nM	15 nM	Helios degradation	2.5 nM			
CC(C)(NCCc1cccc(C(F)(F)F)c1)c1cccc(NC2=CC(=O)N(C3CCC(=O)NC3=O)C2=O)c1 (stereo not shown) [Compound 65, 3-(2,5-dioxo-3-((3-(2-((3-(trifluoromethyl)phenethyl)amino)propan-2-yl)phenyl)amino)-2,5-dihydro-1H-pyrrol-1-yl)piperidine-2,6-dione]	3.6 nM			Helios degradation		5.1 nM	18 nM	17 nM
